Reference: US20020049151A1, “Therapeutic approaches to diseases by suppression of the NURR subfamily of nuclear transcription factors” (priority 2000, published 2002)

How the values were obtained:
CRH mRNA = assay: RT-PCR of CRH mRNA in primary human synoviocytes; format: cell-based; details: primary RA and PsA synoviocytes, 6 h; 10 ng/ml IL-1β, IL-6, TNF, 1 μM PGE2, MoCM; mean +/−SE
Excerpt: To identify the origin of the cells that express CRH, the expression of CRH mRNA in isolated primary human synoviocyte cells was investigated. Synoviocytes are an important source and target cell for IL-1β, TNFα and PGE2 action within inflamed synovial tissue (Bucala et al., 1991). Moreover, these pro-inflammatory agents are important mediators in the pathogenesis of human synovial hyperplasia and cartilage destruction (MacNaul et aL., 1990). […] Representative examples of PCR products generated using synoviocytes maintained under normal conditions (Con), or exposed to 10 ng/ml IL-1β, IL-6, TNF, 1 μM PGE2, MoCM or 25 μM forskolin (FOR) for 6 h. Results were obtained from three separate experiments, using both RA and PsA cell lines. Values shown are the mean +/−SE. The symbol * indicates P<0.01 compared to control. PCR products generated were confirmed by Southern blot analysis using CDNA probes for human CRH and GAPDH.
The regulation of hypothalamic CRH gene expression by activation of adenylate cyclase/protein kinase A signaling pathway has previously been established (Guardiola-diaz et al., 1994). The ability of forskolin (FOR), an adenylate cyclase activating agent, was tested for stimulatory effects on CRH gene expression in primary synoviocytes. […] To determine regulatory signals of peripheral CRH expression the ability of pro-inflammatory agonists to regulate endogenous CRH MRNA was examined. […] Next, a comparison of the ability of individual pro-inflammatory mediators to induce CRH mRNA was performed. […] Levels of GAPDH mRNA remained relatively constant under all conditions tested (FIG. 1D).
Synovial tissue was treated for 4 h with 1 mg/ml collagenase (type I; Worthington Biochemical, Freehold, N.J.) in RPMI at 37° C. in 5% CO2. Dissociated cells were plated in RPMI supplemented with 10% fetal calf serum (GibcoBRL, Paisley, UK), penicillin (100 U/ml), streptomycin (100 U/ml) and fungizone (0.25 μg/ml). […] Twenty-four hours before transfection, 1×10^6 synoviocyte cells were plated in 25 cm^2 dishes and allowed to attach. […] Chloramphenicol acetyl transferase (CAT) levels were measured using a CAT ELISA (Boehringer Mannheim, Germany). Protein concentrations were determined by the Bradford assay (BioRad, Richmond, Calif.). […]

human CRH promoter = assay: hCRH-CAT reporter, transient transfection in primary human synoviocytes; format: cell-based; details: -666/+111 hCRH-CAT; RA and PsA synoviocytes; 10 ng/ml IL-1β, IL-6, TNFα, 1 μM PGE2, MoCM; 12 h
Protocol: To determine whether inflammatory mediators are capable of regulating the expression of the human CRH promoter a reporter construct was generated by cloning the proximal promoter region (−666/+111) (SEQ ID NO: 143) of the human CRH gene into the promoterless pBL3-chloramphenicol acetyl transferase (CAT) plasmid to create hCRH-CAT. Transcriptional regulation of the hCRH promoter was measured by transient transfection in primary human synoviocytes. […] Three individual RA and PsA synoviocyte cell lines were transiently transfected with 3 μg -666 /+111 hCRH-CAT reporter plasmid to monitor CRH promoter activity, maintained under normal conditions (Con), or exposed to 10 ng/ml IL-1β, IL-6, TNFα1 μM PGE2, MoCM or 25 μM FOR for 12 h. […] Representative CAT levels produced by transfected cells are illustrated in FIG. 2B.
Synovial tissue was treated for 4 h with 1 mg/ml collagenase (type I; Worthington Biochemical, Freehold, N.J.) in RPMI at 37° C. in 5% CO2. Dissociated cells were plated in RPMI supplemented with 10% fetal calf serum (GibcoBRL, Paisley, UK), penicillin (100 U/ml), streptomycin (100 U/ml) and fungizone (0.25 μg/ml). […] Twenty-four hours before transfection, 1×10^6 synoviocyte cells were plated in 25 cm^2 dishes and allowed to attach. Endotoxin free-DNA ([…] CMV-β-galactosidase or 3 μg -666/+111 hCRH CAT (Murphy and Conneely, 1997) was added to 35 μl lipotaxi reagent (Stratagene, Cambridge, UK) in a volume of 900 μl RPMI (serum free) and incubated at room temperature for 30 min. RPMI (1.5 ml) was added to the transfection mixture, transferred onto the cells and incubated for 6 h at 37° C. in 5% CO2. An equal volume of media was added, and the cells were incubated overnight at 37° C. in 5% CO2. The DNA-lipotaxi containing media was replaced, and the cells were left untreated or treated with 10 ng/ml IL-1β, IL-6, TNFα, 1 μM PGE2 or MoCM and incubated for a further 24 h. Chloramphenicol acetyl transferase (CAT) levels were measured using a CAT ELISA (Boehringer Mannheim, Germany). Protein concentrations were determined by the Bradford assay (BioRad, Richmond, Calif.). For β-galactosidase assays cells were washed with cold phosphate buffered saline (PBS), fixed with cold 0.5% glutaraldehyde and washed twice with PBS before incubation with staining solution (1M MgCl2, 5M NaCL, 0.5M HEPES pH7.3, 30 mM potassium ferricyanide, 30 mM potassium ferrocyanide and 2% 5-bromo-4-chloro-3-indoyl-β-galactopyranoside) for 12 h at 37° C.

Compound	CRH mRNA expression, fold stimulation (CRH mRNA)	transcriptional activity of the hCRH promoter (CAT), fold (human CRH promoter)
CCCCC[C@H](O)/C=C/[C@H]1[C@H](O)CC(=O)[C@@H]1C/C=C\CCCC(=O)O [PGE2, reference compound]	3.85+/−1.5 fold	28.8+/−1.7 fold
IL-1β: pro-inflammatory cytokine	2.3+/−1.0 fold	17.1+/−3.1 fold
IL-6: pro-inflammatory cytokine	1.5+/−1.2 fold	3.2+/−1.9 fold
TNFα	3.6+/−2.0 fold	15.6+/−1.9 fold
